Key:
Parameters in all cases: species or system human
ulcerative colitis = test: In vivo activity of 4-PB against ulcerative colitis (patient case)
[1] = system: primary sclerosing cholangitis; test: In vivo activity of 4-PB against primary sclerosing cholangitis (patient cases); conditions: two female patients chosen for liver transplant, after 5 months of treatment
Experimental: Two female patients with primary sclerosing cholangitis were treated with 4-PB. Both had recurrent fever and abdominal pains for days. Both were chosen for liver transplant.

psoriasis = test: In vivo activity of 4-PB against psoriasis (patient case); conditions: received 4-PB for colon carcinoma, after four months of treatment, lasting after sessions of 4-PB
Text: A patient with generalized psoriasis, who has been treated for years with corticoids ointments, received 4-PB for a colon carcinoma.

[2] = system: recurrent vulvo-vaginitis; test: In vivo activity of 4-PB against recurrent vulvo-vaginitis (patient cases); conditions: two female patients
Experimental: Two female patients were treated with 4-PB for other reasons (one for cancer and one for depressions).

varicose veins = test: In vivo activity of 4-PB against varicose veins (patient case)
Experimental: A patient with breast cancer was treated with 4-PB.

[3] = system: major depressive disorder; test: In vivo activity of 4-PB against major depressive disorder (patient cases)
Experimental: Four female patients and one patient with major depressive disorders, some of which suffering from other diseases, were treated with 4-PB.

tinnitus = test: In vivo activity of 4-PB against tinnitus (patient cases); conditions: two male patients with tinnitus lasting more than ten years, after four months of treatment
Experimental: Two male patients with tinnitus, lasting for more than ten years, were treated with 4-PB.

C[C@@H](NC(=O)CCCc1ccccc1)C(=O)O [4-PB, N-(4-phenylbutanoyl)-D-alanine]
response of ulcerative colitis to 4-PB (ulcerative colitis; patient with recurrent episodes of ulcerative colitis): good response | bowel state and symptoms (pain, diarrhea) (ulcerative colitis; patient, after 6 months of treatment): bowels were normal and they had no pain and no diarrhea anymore | symptoms and signs of cholangitis [1]: both were free of symptoms and signs of the underlying cholangitis | remission of generalized psoriasis (psoriasis): complete remission | presence of vulvo-vaginitis ([2]; after four months of treatment): both were free of vulvo-vaginitis | remission of vulvo-vaginitis after sessions of 4-PB ([2]; even after sessions of 4-PB): complete remission | spider veins on both legs (varicose veins; patient with breast cancer treated with 4-PB): remained unchanged | enlarged (varicose) veins on both legs (varicose veins; patient with breast cancer, during therapy with 4-PB): disappearance of the enlarged veins on both legs | recurrence of enlarged veins (varicose veins; patient, in the next 10 years): without a recurrence | depressions ([3]; four female patients and one patient with major depressive disorders): depressions disappeared in three to five months | recurrence of depression ([3]; four female patients and one patient, after disappearance of depressions): No recurrences have been observed | tinnitus (tinnitus): tinnitus has disappeared in both cases

Source: patent publication US20180085333A1, “4-PHENYLBUTYRIC ACID DERIVATIVES” (priority 2015, published 2018)
